Experimental data from article PMC6271870, “Study on the Synthesis, Biological Activity and Spectroscopy of Naphthalimide-Diamine Conjugates” (Molecules, 2014).

Tests used:
cancer of colon HCT116 = experiment: MTT assay, HCT116 cells; type: cell-based; details: Homo sapiens, HCT-116, aminoguanidine present, mean ± SD of three determinations, max 50 µM tested
Procedure: The cytotoxicities of the novel conjugates were assessed in vitro by the MTT assay in the presence of aminoguanidine (an inhibitor of amine oxidase) against three cell lines, human leukemia K562, cancer of colon HCT116 and human normal hepatocyte QSG-7701 [34]. […] Thus, compound 7f was selected for further investigation. Cell lines, K562, 7721 and HCT116 were obtained from American Type Culture Collection (ATCC, Shanghai, China). Cells were cultured in RPMI1640, supplemented with 10% heat-inactivated fetal calf serum (FCS), antibiotics (penicillin, 100 units/mL; streptomycin sulfate, 100 μg/mL) at 37 °C, in an atmosphere of 95% air and 5% CO2 under humidified conditions. Aminoguanidine (1 mM) was added as an inhibitor of amine oxidase derived from FCS and had no effect on the various parameters of the cell measured in this study. In addition, exponentially growing HCT116 or 7721 cells were seeded into 96-well plates at 5000 cells/well and allowed to attach overnight, and then 100 μL of MTT (1 mg/mL) was added. After incubation for 4 h at 37 °C, the MTT solution was removed and the remaining formazan crystals were dissolved with 150 μL DMSO in each well. The absorbance of each well was then read at 570 nm.

HepG2 cells [1] = experiment: Cell cycle analysis by High Content Screening (PI staining); type: cell-based; details: HepG2, 20 μM, 48 h
Procedure: To reveal the cytotoxic mechanism of compound 7f, we ﬁrst examined its effects on the cell cycle perturbation. The DNA content analysis by High Content Screening (HCS) confirmed that 7f could induce HepG2 cell cycle perturbation (Figure 3).
Exponentially growing HepG2 cells were seeded in 96 well plates ([…]), cultured for 24 h and then treated with different concentrations of compound 7f for 48 h. After incubation for 48 h, cells were washed twice with ice-cold 10% PBS, fixed and permeabilized with ice-cold 70% ethanol at −20 °C overnight. The cells were treated with 50 μg/mL RNase A at room temperature for 30 min after washed with ice-cold PBS, and finally stained with 50 μg/mL propidium iodide (PI) in the dark at 4 °C for 30 min. The distribution of cell cycle phases with different DNA contents was read in image analysis system of high content screening living cells.

HepG2 cells [2] = experiment: Apoptosis by Hoechst 33342 staining, laser scanning confocal microscope; type: cell-based; details: HepG2, 20 μM, 48 h, 200 cells counted; control less than five percent
Excerpt: Apoptosis, or namely programmed cell death, can be triggered by several stimuli. Both naphthalimides and polyamine derivatives could trigger cell apoptosis. In order to determine whether the antitumor-proliferative effect of compound 7f was associated with cell apoptosis, the HepG2 cell apoptosis was detected by the staining of DNA with Hoechst 33342, and the apoptotic cells were counted by selecting 200 cells randomly (Figure 4). The apoptotic bodies were observed clearly in 7f-treated groups by laser scanning confocal microscope. 7f could trigger apoptosis in a dose-dependent manner with the 47.0% apoptotic ratio of 7f at 20 μM compared with the less than five percent in the control group. Exponentially growing HepG2 cells were seeded in 96 well plates (6 × 10^4 cells/well) and treated with indicated concentrations of 7f. After incubated for 48 h, cells were washed three times with PBS, and finally stained with 10 μM Hoechst 33342 in the dark at 37 °C for 20 min. They were detected by laser scanning confocal microscope and the apoptotic cells were count by selecting 200 cells randomly.

herring sperm DNA-EB = experiment: Fluorescence quenching of DNA-EB complex by compound (EB displacement); type: binding; details: DNA-EB quenched by 7f
Excerpt: Ethidium bromide (EB) is a well known DNA intercalator, which is often used as a spectral probe to establish the mode of binding of small molecules to double-helical DNA [41]. The ﬂuorescence of EB increases after binding with DNA due to intercalation. Like EB, if naphthalimides intercalate into the helix of DNA, it would compete with EB for its intercalation sites in DNA, and the displacement of EB from the DNA–EB complex leads to a signiﬁcant decrease in the ﬂuorescence intensity of the DNA-EB complex. Therefore, herring sperm DNA-EB complex in the presence of increasing concentrations of naphthalimide-diamine conjugate 7f was also measured.
The Stern–Volmer equation is the following: F0/F = 1+ KSVc = 1+ […] where F0 and F are the ﬂuorescence intensities in the absence and presence of quencher (DNA for compound 7f or compound 7f for DNA-EB, respectively), KSV is the Stern-Volmer quenching constant, [c] is the concentration of DNA (or compound 7f), Kq is the biomolecule quenching rate constant and Kq = KSV/τ0. τ0 is the average lifetime of the molecule without any quencher and the ﬂuorescence lifetime of the biopolymer is 10^−8 s. The Stern–Volmer plots of F0/F versus [c] at the three temperatures were shown in Figure 9 and Figure 10, and the calculated KSV and Kq values were presented in Table 2 and Table 3.
When small molecules bind independently to a set of equivalent sites in a macromolecule, the binding constant (Kb) can be determined by the following equation [40, 52]: log[1/c] = log [F/(F0 − F)] + logKb(3) where Kb denotes the binding constant for interaction of naphthalimide–DNA, and F0, F, [c] have the same meanings as in Equation (2).
There are several acting forces between a small organic molecule and biomacromolecules, such as hydrophobic force, hydrogen bond, van der Waals force, electrostatic interactions, etc. […]

IC50 (cancer of colon HCT116): 5.45 ± 1.71 µM | KSV (Stern-Volmer quenching constant) (herring sperm DNA-EB; 298 K): 5028 L/mol | KSV (Stern-Volmer quenching constant) (herring sperm DNA-EB; 303 K): 4564 L/mol | KSV (Stern-Volmer quenching constant) (herring sperm DNA-EB; 310 K): 4176 L/mol
Structure (SMILES): Cl.Cl.NCCCCNCCCN1C(=O)c2cccc3cccc(c23)C1=O [Compound 7f, 2-[3-(4-Aminobutylamino)propyl]1H-benz-[de]isoquinoline-1,3(2H)-dione dihydrochloride]
cells in G2/M phase (HepG2 cells [1]): 49.8% | cells in G0/G1 phase (HepG2 cells [1]; control 52.6%): 29.7% | apoptotic ratio (HepG2 cells [2]): 47.0%
